Experimental data as given in ChEMBL document CHEMBL1130962, “Selective alpha-1a adrenergic receptor antagonists. Effects of pharmacophore regio- and stereochemistry on potency and selectivity” (Bioorg Med Chem Lett, 1998).

Key:
[1] = molecular target: Mu-type opioid receptor (Mus musculus, UniProt P42866); assay: Opioid binding affinity was evaluated using [3H]DAMGO as radioligand
[2] = molecular target: T1, Alpha-1D adrenergic receptor (Homo sapiens, UniProt P25100); assay: Binding affinity against human Alpha-1d adrenergic receptor was evaluated by cloned receptor binding assay
T1 sequence (P25100 whole entry): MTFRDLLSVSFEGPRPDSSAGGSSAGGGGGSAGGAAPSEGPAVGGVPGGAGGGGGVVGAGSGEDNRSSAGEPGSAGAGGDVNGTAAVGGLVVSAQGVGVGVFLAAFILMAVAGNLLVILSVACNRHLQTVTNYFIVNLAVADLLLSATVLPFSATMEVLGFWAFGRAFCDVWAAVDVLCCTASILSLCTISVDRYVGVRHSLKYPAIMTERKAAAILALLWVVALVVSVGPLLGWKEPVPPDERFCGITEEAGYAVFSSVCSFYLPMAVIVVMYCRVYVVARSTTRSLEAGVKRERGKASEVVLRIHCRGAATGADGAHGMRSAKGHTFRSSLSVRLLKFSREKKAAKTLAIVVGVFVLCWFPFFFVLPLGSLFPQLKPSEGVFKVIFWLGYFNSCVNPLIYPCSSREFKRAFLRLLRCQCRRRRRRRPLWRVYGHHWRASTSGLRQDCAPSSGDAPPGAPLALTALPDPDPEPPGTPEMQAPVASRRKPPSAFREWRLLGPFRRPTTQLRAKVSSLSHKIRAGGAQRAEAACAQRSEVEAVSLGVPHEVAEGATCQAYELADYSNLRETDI

[3] = molecular target: T2, Alpha-1B adrenergic receptor (Homo sapiens, UniProt P35368); assay: Binding affinity against human Alpha-1b adrenergic receptor was evaluated by cloned receptor binding assay
T2 sequence (P35368 whole entry): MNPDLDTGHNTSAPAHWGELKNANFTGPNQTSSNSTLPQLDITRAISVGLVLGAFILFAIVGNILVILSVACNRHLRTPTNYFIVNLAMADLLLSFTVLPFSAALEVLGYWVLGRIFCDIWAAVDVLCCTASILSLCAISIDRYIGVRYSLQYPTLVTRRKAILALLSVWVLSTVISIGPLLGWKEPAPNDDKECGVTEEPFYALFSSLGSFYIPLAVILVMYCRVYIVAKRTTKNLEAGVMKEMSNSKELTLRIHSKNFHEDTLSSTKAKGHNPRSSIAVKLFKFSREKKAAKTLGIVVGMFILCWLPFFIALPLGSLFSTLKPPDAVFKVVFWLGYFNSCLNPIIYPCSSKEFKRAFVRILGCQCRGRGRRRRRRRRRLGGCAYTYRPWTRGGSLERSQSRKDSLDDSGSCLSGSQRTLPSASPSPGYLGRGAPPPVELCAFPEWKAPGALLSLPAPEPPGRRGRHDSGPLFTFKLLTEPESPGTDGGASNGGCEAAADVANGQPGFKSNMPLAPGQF

[4] = molecular target: T3, Alpha-1A adrenergic receptor (Homo sapiens, UniProt P35348); assay: Binding affinity against human Alpha-1a adrenergic receptor was evaluated by cloned receptor binding assay
T3 sequence (P35348 whole entry): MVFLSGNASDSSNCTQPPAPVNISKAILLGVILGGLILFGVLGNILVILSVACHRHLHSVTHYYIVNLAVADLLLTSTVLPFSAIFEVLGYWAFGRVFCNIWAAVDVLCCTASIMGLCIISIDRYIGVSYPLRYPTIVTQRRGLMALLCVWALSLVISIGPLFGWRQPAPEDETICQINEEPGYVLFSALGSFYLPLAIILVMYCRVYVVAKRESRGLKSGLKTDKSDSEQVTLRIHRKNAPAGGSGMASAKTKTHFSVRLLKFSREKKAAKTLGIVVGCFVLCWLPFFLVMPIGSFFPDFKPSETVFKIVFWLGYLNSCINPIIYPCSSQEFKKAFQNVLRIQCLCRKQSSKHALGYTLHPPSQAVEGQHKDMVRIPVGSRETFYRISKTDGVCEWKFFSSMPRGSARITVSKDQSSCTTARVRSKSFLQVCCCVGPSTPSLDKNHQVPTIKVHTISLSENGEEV

Chain of Mu-type opioid receptor (P42866 whole entry): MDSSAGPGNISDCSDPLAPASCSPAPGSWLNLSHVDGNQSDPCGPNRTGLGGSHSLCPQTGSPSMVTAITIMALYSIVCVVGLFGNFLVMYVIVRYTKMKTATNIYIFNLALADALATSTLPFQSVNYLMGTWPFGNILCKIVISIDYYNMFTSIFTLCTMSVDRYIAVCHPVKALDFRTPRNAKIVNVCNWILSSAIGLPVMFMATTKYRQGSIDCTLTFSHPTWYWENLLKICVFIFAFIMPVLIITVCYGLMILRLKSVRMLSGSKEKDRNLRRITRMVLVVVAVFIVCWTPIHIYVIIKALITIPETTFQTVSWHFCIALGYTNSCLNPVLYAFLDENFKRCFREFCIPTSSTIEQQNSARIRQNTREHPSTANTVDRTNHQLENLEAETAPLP

CCOC(=O)C1CNCCC1c1ccccc1 (racemic)
Ki [1]: 24000 nM

CCOC(=O)[C@@H]1CN(CCCCN2C(=O)c3cc(Cl)ccc3S2(=O)=O)CC[C@@H]1c1ccccc1
Ki [2]: 480 nM
Ki [3]: 170 nM
Ki [4]: 0.51 nM

CCOC(=O)[C@H]1CNCC[C@H]1c1ccccc1
Ki [1]: 12000 nM

CCOC(=O)[C@H]1CN(CCCCN2C(=O)c3cc(Cl)ccc3S2(=O)=O)CC[C@H]1c1ccccc1
Ki [2]: 1100 nM
Ki [3]: > 2000 nM
Ki [4]: 98 nM

O=C1c2ccccc2S(=O)(=O)N1CCCCN1CCN(c2ncccn2)CC1 [IPSAPIRONE]
Ki [2]: 46 nM
Ki [3]: 220 nM
Ki [4]: 87 nM

CCOC(=O)C1CN(CCCCN2C(=O)c3cc(Cl)ccc3S2(=O)=O)CCC1c1ccccc1 (racemic)
Ki [2]: 1800 nM
Ki [3]: 940 nM
Ki [4]: 3 nM

COC(=O)C1(c2ccccc2)CCN(CCCCN2C(=O)c3cc(Cl)ccc3S2(=O)=O)CC1
Ki [2]: 2000 nM
Ki [3]: 2200 nM
Ki [4]: 44 nM

CCOC(=O)[C@@H]1CNCC[C@@H]1c1ccccc1
Ki [1]: 7600 nM

CCOC(=O)[C@H]1CN(CCCCN2C(=O)c3cc(Cl)ccc3S2(=O)=O)CC[C@@H]1c1ccccc1 (racemic)
Ki [2]: 320 nM
Ki [3]: 1400 nM
Ki [4]: 100 nM
